Source: US8840866B2, “Styrylpyridine derivatives and their use for binding and imaging amyloid plaques” (The Trustees of the University of Pennsylvania, priority 2006, dated 2014)

How the values were obtained:
fibrillar Aβ aggregates = fibrillar Aβ aggregates (Homo sapiens, UniProt P05067); conditions: Mathis et al. 1997; read-out: inhibition constants (Ki) for binding to fibrillar Aβ aggregates; cited from earlier work
[1] = molecular target: amyloid plaques in AD brain homogenates (Homo sapiens, UniProt P05067); conditions: displacement of 125I-IMPY binding
amyloid plaques in AD brain homogenates, sequence (P05067 672-711): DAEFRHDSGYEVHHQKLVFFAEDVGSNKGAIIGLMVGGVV
Description: Values represent potencies (Ki) of compounds for displacement of ^125I-IMPY binding to amyloid plaques in AD brain homogenates.
Competition binding assays were carried out in 12×75 mm borosilicate glass tubes. The reaction mixture contained 50 μl of pooled AD brain homogenates (20-50 μg), 50 μl of [^125I]IMPY (0.04-0.06 nM diluted in PBS) and 50 μl of inhibitors (10^−5-10^10 M diluted serially in PBS containing 0.1% bovine serum albumin) in a final volume of 1 ml. Nonspecific binding was defined in the presence of 600 nM IMPY in the same assay tubes. The mixture was incubated at 37° C. for 2 h and the bound and the free radioactivity were separated by vacuum filtration through Whatman GF/B filters using a Brandel M-24R cell harvester followed by 2×3 ml washes of PBS at room temperature. Filters containing the bound 1-125 ligand were counted in a gamma counter (Packard 5000) with 70% counting efficiency. Under the assay conditions, the specifically bound fraction was less than 15% of the total radioactivity. The results of inhibition experiments were subjected to nonlinear regression analysis using equilibrium binding data analysis from which Ki values were calculated.

Aβ plaques = assay: Film autoradiography of postmortem AD brain sections; format: binding, human
Description: [^18F]tracers: Brain sections from AD subjects were obtained by freezing the brain in powdered dry ice and cut into 20 micrometer-thick sections. The sections were incubated with [^18F]tracers (200,000-250,000 cpm/200 μl) for 1 hr at room temperature. The sections were then dipped in saturated Li2CO3 in 40% EtOH (two two-minute washes) and washed with 40% EtOH (one two-minute wash) followed by rinsing with water for 30 sec. After drying, the ^18F-labeled sections were exposed to Kodak MR film overnight.

[2] = Organ distribution in normal ICR mice after iv injection of radiolabeled tracer; format: in vivo; conditions: 5% EtOH in saline
Description: The mice (n=3 for each time point) were sacrificed by cervical dislocation at designated time-points post injection. The organs of interest were removed and weighed, and the radioactivity was counted with an automatic gamma counter. The percentage dose per organ was calculated by a comparison of the tissue counts to suitably diluted aliquots of the injected material. The total activity of the blood was calculated under the assumption that it is 7% of the total body weight. The % dose/g of samples was calculated by comparing the sample counts with the count of the diluted initial dose.

[3] = system: pooled AD and control brain tissue homogenates; assay: Specific binding of [18F]2 to pooled AD and control brain tissue homogenates; design: species or system human
Text: FIG. 8 depicts specific binding of [^18F]2 to pooled AD and control brain tissue homogenates. Gray and white matters were dissected from the cortical regions. […] The values presented are the mean±SEM of six measurements.

[4] = 2 min, second organ list r16-r25
[5] = 30 min, first organ list r6-r15
[6] = 30 min, second organ list r16-r25
[7] = 1 hr, second organ list r16-r25
[8] = 2 hr, second organ list r16-r25

fibrillar Aβ aggregates, sequence (P05067 672-711 limits assumed): as the sequence (P05067 672-711) above

Structure (SMILES): O=C(O)c1cc(/N=N/c2ccc(-c3ccc(/N=N/c4ccc(O)c(C(=O)O)c4)cc3)cc2)ccc1O [CG, chrysamine-G]
- Ki (fibrillar Aβ aggregates): 370 nM

Structure (SMILES): CN(C)c1ccc(/C=C/c2ccc(OCCOCCOCCF)nc2)cc1 [Compound 2, (E)-2-(2-(2-(2-fluoroethoxy)ethoxy)ethoxy)-5-(4-dimethylaminostyryl)pyridine]
- Ki [1]: 2.5 ± 0.4 nM
- autoradiography result (Aβ plaques): confirmed the specific binding related to the presence of Aβ plaques

Structure (SMILES): CN(C)c1ccc(/C=C/c2ccc(OCCOCCOCCF)nc2)cc1 [[^18F]2, (E)-2-(2-(2-(2-fluoroethoxy)ethoxy)ethoxy)-5-(4-dimethylaminostyryl)pyridine]
- Biodistribution: Blood ([2]; 2 min, first organ list r6-r15): 6.05 ± 0.33 % dose/g
- Biodistribution: Bone ([2]; 2 min, first organ list r6-r15): 5.97 ± 0.56 % dose/g
- Biodistribution: Brain ([2]; 2 min, first organ list r6-r15): 3.49 ± 0.58 % dose/g
- Biodistribution: Heart ([2]; 2 min, first organ list r6-r15): 0.75 ± 0.14 % dose/g
- Biodistribution: Kidney ([2]; 2 min, first organ list r6-r15): 6.38 ± 0.95 % dose/g
- Biodistribution: Liver ([2]; 2 min, first organ list r6-r15): 24.90 ± 1.49 % dose/g
- Biodistribution: Lung ([2]; 2 min, first organ list r6-r15): 1.07 ± 0.20 % dose/g
- Biodistribution: Muscle ([2]; 2 min, first organ list r6-r15): 7.03 ± 1.30 % dose/g
- Biodistribution: Skin ([2]; 2 min, first organ list r6-r15): 2.52 ± 0.24 % dose/g
- Biodistribution: Spleen ([2]; 2 min, first organ list r6-r15): 0.43 ± 0.11 % dose/g
- Biodistribution: Blood [2, 4]: 3.04 ± 0.29 % dose/g
- Biodistribution: Bone [2, 4]: 1.49 ± 0.08 % dose/g
- Biodistribution: Brain [2, 4]: 7.77 ± 1.34 % dose/g
- Biodistribution: Kidney [2, 4]: 14.19 ± 2.34 % dose/g
- Biodistribution: Liver [2, 4]: 17.00 ± 0.69 % dose/g
- Biodistribution: Lung [2, 4]: 5.65 ± 0.89 % dose/g
- Biodistribution: Muscle [2, 4]: 0.62 ± 0.10 % dose/g
- Biodistribution: Skin [2, 4]: 0.59 ± 0.03 % dose/g
- Biodistribution: Spleen [2, 4]: 4.65 ± 0.76 % dose/g
- Biodistribution: Blood [2, 5]: 2.65 ± 0.22 % dose/g
- Biodistribution: Bone [2, 5]: 2.52 ± 0.34 % dose/g
- Biodistribution: Brain [2, 5]: 0.48 ± 0.07 % dose/g
- Biodistribution: Heart [2, 5]: 0.17 ± 0.03 % dose/g
- Biodistribution: Kidney [2, 5]: 1.68 ± 0.11 % dose/g
- Biodistribution: Liver [2, 5]: 9.26 ± 0.83 % dose/g
- Biodistribution: Lung [2, 5]: 0.30 ± 0.01 % dose/g
- Biodistribution: Muscle [2, 5]: 8.58 ± 0.26 % dose/g
- Biodistribution: Skin [2, 5]: 3.99 ± 0.34 % dose/g
- Biodistribution: Spleen [2, 5]: 0.15 ± 0.05 % dose/g
- Biodistribution: Blood [2, 6]: 1.33 ± 0.16 % dose/g
- Biodistribution: Bone [2, 6]: 0.63 ± 0.12 % dose/g
- Biodistribution: Brain [2, 6]: 1.03 ± 0.11 % dose/g
- Biodistribution: Heart [2, 6]: 1.28 ± 0.16 % dose/g
- Biodistribution: Kidney [2, 6]: 3.77 ± 0.36 % dose/g
- Biodistribution: Liver [2, 6]: 7.21 ± 0.69 % dose/g
- Biodistribution: Lung [2, 6]: 1.73 ± 0.17 % dose/g
- Biodistribution: Muscle [2, 6]: 0.75 ± 0.04 % dose/g
- Biodistribution: Skin [2, 6]: 0.93 ± 0.13 % dose/g
- Biodistribution: Spleen [2, 6]: 1.57 ± 0.51 % dose/g
- Biodistribution: Blood ([2]; 1 hr, first organ list r6-r15): 3.48 ± 0.47 % dose/g
- Biodistribution: Bone ([2]; 1 hr, first organ list r6-r15): 4.39 ± 0.40 % dose/g
- Biodistribution: Brain ([2]; 1 hr, first organ list r6-r15): 0.55 ± 0.10 % dose/g
- Biodistribution: Heart ([2]; 1 hr, first organ list r6-r15): 0.22 ± 0.03 % dose/g
- Biodistribution: Kidney ([2]; 1 hr, first organ list r6-r15): 1.96 ± 0.21 % dose/g
- Biodistribution: Liver ([2]; 1 hr, first organ list r6-r15): 10.52 ± 2.18 % dose/g
- Biodistribution: Lung ([2]; 1 hr, first organ list r6-r15): 0.35 ± 0.07 % dose/g
- Biodistribution: Muscle ([2]; 1 hr, first organ list r6-r15): 10.62 ± 2.59 % dose/g
- Biodistribution: Skin ([2]; 1 hr, first organ list r6-r15): 4.42 ± 0.65 % dose/g
- Biodistribution: Spleen ([2]; 1 hr, first organ list r6-r15): 0.13 ± 0.03 % dose/g
- Biodistribution: Blood [2, 7]: 1.80 ± 0.16 % dose/g
- Biodistribution: Bone [2, 7]: 1.13 ± 0.01 % dose/g
- Biodistribution: Brain [2, 7]: 1.28 ± 0.20 % dose/g
- Biodistribution: Heart [2, 7]: 1.66 ± 0.24 % dose/g
- Biodistribution: Kidney [2, 7]: 4.29 ± 0.52 % dose/g
- Biodistribution: Liver [2, 7]: 8.13 ± 1.42 % dose/g
- Biodistribution: Lung [2, 7]: 1.82 ± 0.31 % dose/g
- Biodistribution: Muscle [2, 7]: 0.95 ± 0.18 % dose/g
- Biodistribution: Skin [2, 7]: 1.06 ± 0.09 % dose/g
- Biodistribution: Spleen [2, 7]: 1.56 ± 0.17 % dose/g
- Biodistribution: Blood ([2]; 2 hr, first organ list r6-r15): 2.15 ± 0.25 % dose/g
- Biodistribution: Bone ([2]; 2 hr, first organ list r6-r15): 6.49 ± 0.08 % dose/g
- Biodistribution: Brain ([2]; 2 hr, first organ list r6-r15): 0.37 ± 0.08 % dose/g
- Biodistribution: Heart ([2]; 2 hr, first organ list r6-r15): 0.18 ± 0.08 % dose/g
- Biodistribution: Kidney ([2]; 2 hr, first organ list r6-r15): 0.96 ± 1.58 % dose/g
- Biodistribution: Liver ([2]; 2 hr, first organ list r6-r15): 6.86 ± 0.59 % dose/g
- Biodistribution: Lung ([2]; 2 hr, first organ list r6-r15): 0.20 ± 0.36 % dose/g
- Biodistribution: Muscle ([2]; 2 hr, first organ list r6-r15): 5.96 ± 0.06 % dose/g
- Biodistribution: Skin ([2]; 2 hr, first organ list r6-r15): 2.91 ± 0.16 % dose/g
- Biodistribution: Spleen ([2]; 2 hr, first organ list r6-r15): 0.10 ± 0.17 % dose/g
- Biodistribution: Blood [2, 8]: 1.08 ± 0.06 % dose/g
- Biodistribution: Bone [2, 8]: 1.64 ± 0.50 % dose/g
- Biodistribution: Brain [2, 8]: 0.84 ± 0.08 % dose/g
- Biodistribution: Heart [2, 8]: 1.32 ± 0.33 % dose/g
- Biodistribution: Kidney [2, 8]: 2.19 ± 0.36 % dose/g
- Biodistribution: Liver [2, 8]: 4.96 ± 0.90 % dose/g
- Biodistribution: Lung [2, 8]: 0.98 ± 0.08 % dose/g
- Biodistribution: Muscle [2, 8]: 0.52 ± 0.08 % dose/g
- Biodistribution: Skin [2, 8]: 0.68 ± 0.16 % dose/g
- Biodistribution: Spleen [2, 8]: 1.14 ± 0.18 % dose/g
- specific binding ([3]; AD brain homogenates, gray matter): High specific binding
- specific binding ([3]; AD brain, white matter homogenates): Relatively low binding
- specific binding ([3]; control brain homogenates, grey or white matter): significantly lower specific binding
